Key:
[1] = system: C. albicans ATCC 90028 (code 145); conditions: 0.02% albumine bovine serum, read after 24 h
Method: (§1) MICs were performed using the broth microdilution methodology following the NCCLS procedure (NCCLS Document M7-A4 Vol. 17 No. 2 January 1997) in presence of 0.02% albumine bovine serum with inocula of approximately 5×10^5 cfu/mL. The media employed included cation-adjusted Mueller-Hinton (MH) broth (Difco Laboratories, Detroit, Mich., USA) supplemented or not with 30% (v/v) bovine serum. Tests were read after 24 h incubation at 25-37° C.

[2] = system: E. faecalisVanA (code 560); conditions: E. faecalis VanA code 560; 0.02% albumine bovine serum; read after 24 h
Method: as §1

[3] = system: E. faecalisVanS (code 559); conditions: E. faecalis VanS code 559; 0.02% albumine bovine serum; read after 24 h
Method: as §1

[4] = system: E. faecium VanA (code 569); conditions: 0.02% albumine bovine serum, read after 24 h
Method: as §1

[5] = system: Enterococcus faecium VanS (code 568); conditions: E. faecium VanS code 568; 0.02% albumine bovine serum; read after 24 h
Method: as §1

[6] = system: Escherichia coli (code 47); conditions: 0.02% albumine bovine serum, read after 24 h
Method: as §1

[7] = system: S. epidermidis ATCC12228 (code 147); conditions: 0.02% albumine bovine serum, read after 24 h
Method: as §1

[8] = system: S. haemolyticus Met-R (code 1729); conditions: 0.02% albumine bovine serum, read after 24 h
Method: as §1

[9] = system: S. haemolyticus Met-S (code 1730); conditions: 0.02% albumine bovine serum, read after 24 h
Method: as §1

[10] = system: Staphylococcus aureus VISA (code 3798); conditions: S. aureus VISA code 3798; 0.02% albumine bovine serum; read after 24 h
Method: as §1

[11] = system: Staphylococcus aureus VISA Met-R (code 3797); conditions: S. aureus VISA Met-R code 3797; 0.02% albumine bovine serum; read after 24 h
Method: as §1

SMILES	Minimal Inhibitory Concentrations [1] [µg/mL]	Minimal Inhibitory Concentrations [2] [µg/mL]	Minimal Inhibitory Concentrations [3] [µg/mL]	Minimal Inhibitory Concentrations [4] [µg/mL]	Minimal Inhibitory Concentrations [5] [µg/mL]	Minimal Inhibitory Concentrations [6] [µg/mL]	Minimal Inhibitory Concentrations [7] [µg/mL]	Minimal Inhibitory Concentrations [8] [µg/mL]	Minimal Inhibitory Concentrations [9] [µg/mL]	Minimal Inhibitory Concentrations [10] [µg/mL]	Minimal Inhibitory Concentrations [11] [µg/mL]
C=C1NC(=O)[C@H](C(C)C)NC(=O)[C@H](NC(=O)/C(=C/C)NC(=O)[C@@H](N)[C@@H](C)CC)CSC[C@@H](C(=O)N[C@H]2C(=O)N3CCC[C@H]3C(=O)NCC(=O)N[C@H](C(=O)N[C@H](C(=O)N[C@@H]3CSC[C@@H]4NC(=O)CNC(=O)[C@@H](CSC[C@@H]5NC(=O)[C@H](Cc6c[nH]cn6)NC(=O)[C@@H](CSC[C@@H](C(=O)NCCOC)NC5=O)NC4=O)NC(=O)CNC(=O)CNC(=O)CNC(=O)[C@H](CCC(=O)NCCOC)NC3=O)[C@@H](C)O)CS[C@H]2C)NC(=O)[C@H](Cc2c[nH]c3ccccc23)NC1=O [Compound 11]	64	16	16	8	16	>128	8	32	4	4	8
C=C1NC(=O)[C@H](C(C)C)NC(=O)[C@H](NC(=O)/C(=C/C)NC(=O)[C@@H](N)[C@@H](C)CC)CSC[C@@H](C(=O)N[C@H]2C(=O)N3CCC[C@H]3C(=O)NCC(=O)N[C@H](C(=O)N[C@H](C(=O)N[C@@H]3CSC[C@@H]4NC(=O)CNC(=O)[C@@H](CSC[C@@H]5NC(=O)[C@H](Cc6c[nH]cn6)NC(=O)[C@@H](CSC[C@@H](C(=O)NC6CCCCC6)NC5=O)NC4=O)NC(=O)CNC(=O)CNC(=O)CNC(=O)[C@H](CCC(=O)NC4CCCCC4)NC3=O)[C@@H](C)O)CS[C@H]2C)NC(=O)[C@H](Cc2c[nH]c3ccccc23)NC1=O [Compound 1]	64	1	1	2	2	>128	2	32	4	2	4
C=C1NC(=O)[C@H](C(C)C)NC(=O)[C@H](NC(=O)/C(=C/C)NC(=O)[C@@H](N)[C@@H](C)CC)CSC[C@@H](C(=O)N[C@H]2C(=O)N3CCC[C@H]3C(=O)NCC(=O)N[C@H](C(=O)N[C@H](C(=O)N[C@@H]3CSC[C@@H]4NC(=O)CNC(=O)[C@@H](CSC[C@@H]5NC(=O)[C@H](Cc6c[nH]cn6)NC(=O)[C@@H](CSC[C@@H](C(=O)NCCN)NC5=O)NC4=O)NC(=O)CNC(=O)CNC(=O)CNC(=O)[C@H](CCC(=O)NCCN)NC3=O)[C@@H](C)O)CS[C@H]2C)NC(=O)[C@H](Cc2c[nH]c3ccccc23)NC1=O [Compound 7]	64	2	4	1	1	>128	1	0.25	<0.125	0.50	1
